Laboratory results reported in US20210276967A1 (OSPEDALE SAN RAFFAELE S.R.L., priority 2018, published 2021).
“And” between values parts separate entries of the source, which are not always exact repeats. Identical values can stand only once. Like-named read-outs stand apart in the source and are kept apart here.

Assay: Mouse PK studies (plasma and liver exposure)
Assay type: in vivo, C57BL/6 mice
Set-up: Liver [mM]: unit not given here
Conditions: for Plasma concentrations / concentration at 24 h / concentration at 8 h / concentration at 0.25 h / concentration at 0.5 h / concentration at 1 h / concentration at 2 h / concentration at 4 h / concentration at 6 h: PO 100 mpk in 0.5% methocell; for AUC(0-t): read-out: AUC (0-24 h); for AUC: read-out: AUC Extrap
Source text: C57BL/6 mice are used to evaluate plasma and liver exposure and pharmacokinetic parameters after intravenous and oral administration (from 2 to 200 mpk according to the compound tested and the administration route). 12 (+3 spare) healthy C57BL/6N male mice are obtained from Charles River S.p.A. Calco (Como), Italy. Animals are ordered weighing 21 to 27 grams and approximately 7 weeks old. Before and during testing, animals are housed in Individual Ventilated Cages (IVCs Tecniplast) with sawdust as bedding (three animals for cage). Cages are identified by a color code label recording the sample ID, animal number and details of treatment (route, dose and sex). Animals are identified by unique number on tail via permanent marker. Animal room controls are set to maintain temperature within the range from 20 to 24° C. and relative humidity within the range from 40 to 70% and an average daily airflow of at least 10 fresh air changes per hour. Actual conditions are recorded. The room is lit by fluorescent tubes controlled to give an artificial cycle of 12 hours light and 12 hours dark each day. All animals are weighed immediately before testing. Animals are dosed IV in a fed state and PO in a fasted state.
Compounds (from 0.4 to 20 mg/mL according to the compound tested and the administration route) are dissolved in DMSO/PEG400/H2O (20/60/20) for IV administration and 0.5% Methocel E50 or 20% Hydroxypropyl-β-cyclodextrin (HP-β-CD) in citrate buffer pH=5 for PO administration. The appropriate dose volume of the test item, calculated for each animal according to body weight (administration volume: 5 mL/kg for IV or 5 mL/kg or 10 mL/kg for PO), is administered by injection into lateral tail vein using 2.5 mL syringe (BD Plasipak) for IV administration and administered orally by gavage using 5 mL Syringe (BD Plastipak) for PO administration. Whole blood sample (about 0.200 mL) is collected via retro orbital sinus using Isoflurane as anesthetic. Blood is collected in Li-Heparin Sartsted® gel tubes appropriately labeled indicating animal number and time point. Tubes are put in wet ice and then centrifuged within 15 minutes from blood collection. Centrifugation is performed using a Heraeus Multifuge® 3S/3S-R set, at 2200×g for 10 minutes, internal temperature is kept at 4° C. After the centrifugation, about 100 μL of plasma samples are obtained and immediately transferred to 1.5 mL Eppendorf tubes and frozen at −20° C. (24/24 h alarmed). Whole blood samples are collected at different times point (0-0.25-0.5-1-2-4-6-8-24 hours) after dosing and kept frozen (−20° C.) until assayed by LC/MS/MS. Livers are explanted at different time point (0-8-24 hours), washed with saline solution, transferred to Eppendorf tubes and frozen at −80° C. until assayed by LC/MS/MS. Analytical procedures: Plasma samples are extracted using Liquid Handling Robot Hamilton StarPlus by protein precipitation with acetonitrile. Then the samples are centrifuged (3000 rpm×15 min at 4° C.) and the supernatant transferred and dried under nitrogen. The samples are reconstituted in water/acetonitrile 90/10 or 50/50 and then injected directly into an UPLC column. Sample analyses are performed using an API 4000 or/and API 5000 or/and API 4000QTrap Mass Spectrometer interfaced via the Turbo Ion Spray (ESI) to an LC system consisting of an Acquity UPLC Sample Manager autosampler and Acquity UPLC Binary Solvent Manager Pump. The results are calculated using Analyst Software linear regression with 1/x*x weighting. The Assay Precision is calculated for the Quality Controls by Watson Lims database.
Cmax is the maximum compound concentration from oral dosing; Tmax is the time at which Cmax is reached; AUC (0-24) is the area under the concentration vs time curve from 0 to 24 hours; AUC extrap is the area under the curve (AUC) extrapolated to infinity, from dosing time based on the last observed concentration. […]

[1] = male, C57BL/6N, mouse, plasma, po, 100 mg/kg, plasma, PO 100 mg/kg in 0.5% methocell, mice, Mean
[2] = male, C57BL/6N, mouse, plasma, po, 100 mg/kg, plasma, PO 100 mg/kg in 0.5% methocell, mice, individual subject
[3] = plasma, PO 100 mg/kg in 0.5% methocell, mice, individual subject, 100 mg/kg

Q: Which results are given for Nc1ccc(C(=O)Nc2cc(F)c(F)c(F)c2)cc1S(N)(=O)=O [Example E3, 4-amino-3-sulfamoyl-N-(3,4,5-trifluorophenyl)benzamide]?
A: Plasma concentrations (0.25 Hours, individual subject, 100 mg/kg): 5.05 µM and 3.95 µM; Plasma concentrations (0.5 Hours, individual subject, 100 mg/kg): 7.23 µM and 10.6 µM; Plasma concentrations (1 Hours, individual subject, 100 mg/kg): 17.2 µM and 9.61 µM; Plasma concentrations (2 Hours, individual subject, 100 mg/kg): 10.7 µM and 17.0 µM; Plasma concentrations (4 Hours, individual subject, 100 mg/kg): 11.2 µM and 10.6 µM; Plasma concentrations (6 Hours, individual subject, 100 mg/kg): 10.5 µM and 9.06 µM; Plasma concentrations (8 Hours, individual subject, 100 mg/kg): 10.4 µM and 12.1 µM; concentration at 24 h (8 Hours, individual subject, 100 mg/kg, read-out: Liver concentrations): 125.87 µM and 119.96 µM; Plasma concentrations (24 Hours, individual subject, 100 mg/kg): 0.268 µM and 0.184 µM and 0.0502 µM; concentration at 24 h (24 Hours, individual subject, 100 mg/kg, read-out: Liver concentrations): 0.6272 µM and 3.0342 µM and 1.8500 µM; Kp at 8 h (male, C57BL/6N, mouse, liver, 100 mpk, 8 h after PO administration, read-out: liver levels higher than plasma (ratio liver/plasma concentration)): 13; concentration at 8 h (male, C57BL/6N, mouse, liver, po, 100 mg/kg, 8 Hours, Mean, read-out: Liver concentrations): 129 µM; concentration at 8 h (male, C57BL/6N, mouse, liver, po, 100 mg/kg, 8 Hours, individual subject, read-out: Liver concentrations): 143 µM; concentration at 24 h (male, C57BL/6N, mouse, liver, po, 100 mg/kg, 24 Hours, Mean, read-out: Liver concentrations): 2 µM; concentration at 0.25 h (male, C57BL/6N, mouse, plasma, po, 100 mg/kg, 0.25 Hours, Mean, read-out: Plasma concentrations): 5 µM; concentration at 0.25 h (male, C57BL/6N, mouse, plasma, po, 100 mg/kg, 0.25 Hours, individual subject, read-out: Plasma concentrations): 6.15 µM; concentration at 0.5 h (male, C57BL/6N, mouse, plasma, po, 100 mg/kg, 0.5 Hours, Mean, read-out: Plasma concentrations): 9 µM; concentration at 0.5 h (male, C57BL/6N, mouse, plasma, po, 100 mg/kg, 0.5 Hours, individual subject, read-out: Plasma concentrations): 7.77 µM; concentration at 1 h (male, C57BL/6N, mouse, plasma, po, 100 mg/kg, 1 Hours, Mean, read-out: Plasma concentrations): 12 µM; concentration at 1 h (male, C57BL/6N, mouse, plasma, po, 100 mg/kg, 1 Hours, individual subject, read-out: Plasma concentrations): 10.2 µM; concentration at 2 h (male, C57BL/6N, mouse, plasma, po, 100 mg/kg, 2 Hours, Mean, read-out: Plasma concentrations): 14 µM; concentration at 2 h (male, C57BL/6N, mouse, plasma, po, 100 mg/kg, 2 Hours, individual subject, read-out: Plasma concentrations): 13 µM; concentration at 4 h (male, C57BL/6N, mouse, plasma, po, 100 mg/kg, 4 Hours, Mean, read-out: Plasma concentrations): 11 µM; concentration at 4 h (male, C57BL/6N, mouse, plasma, po, 100 mg/kg, 4 Hours, individual subject, read-out: Plasma concentrations): 10.9 µM; concentration at 6 h (male, C57BL/6N, mouse, plasma, po, 100 mg/kg, 6 Hours, Mean, read-out: Plasma concentrations): 10 µM; concentration at 6 h (male, C57BL/6N, mouse, plasma, po, 100 mg/kg, 6 Hours, individual subject, read-out: Plasma concentrations): 11.9 µM; concentration at 8 h (male, C57BL/6N, mouse, plasma, po, 100 mg/kg, 8 Hours, Mean, read-out: Plasma concentrations): 10 µM; concentration at 8 h (male, C57BL/6N, mouse, plasma, po, 100 mg/kg, 8 Hours, individual subject, read-out: Plasma concentrations): 9.01 µM; concentration at 24 h (male, C57BL/6N, mouse, plasma, po, 100 mg/kg, 24 Hours, Mean, read-out: Plasma concentrations): 0.2 µM; Cmax (male, C57BL/6N, mouse, plasma, po, 100 mg/kg, PO 100 mg/kg in 0.5% methocell, mice, Mean): 16 µM; Cmax (male, C57BL/6N, mouse, plasma, po, 100 mg/kg, PO 100 mg/kg in 0.5% methocell, mice, individual subject): 17.2 µM; AUC(0-t) [1]: 172 µM·h; AUC [1]: 173 µM·h; Tmax (male, C57BL/6N, mouse, plasma, po, 100 mg/kg, plasma, PO 100 mg/kg in 0.5% methocell, mice, Mean, read-out: Tmax): 1.7 h; AUC(0-t) [2]: 171 µM·h; AUC [2]: 172 µM·h; Tmax (male, C57BL/6N, mouse, plasma, po, 100 mg/kg, plasma, PO 100 mg/kg in 0.5% methocell, mice, individual subject, read-out: Tmax): 1 h; clearance (male, C57BL/6N, mouse, plasma, mice, read-out: in vivo clearance): 10 mL/min/kg; AUC (0-24 h) [3]: 186 µM·h and 160 µM·h; AUC Extrap [3]: 186.4 µM·h and 161.7 µM·h; Cmax [3]: 17 µM and 13 µM; Tmax [3]: 2.00 h

Q: For Cc1cc(N)c(S(N)(=O)=O)cc1C(=O)Nc1cc(F)c(F)c(F)c1 [Example E17, 4-amino-2-methyl-5-sulfamoyl-N-(3,4,5-trifluorophenyl)benzamide], which “Liver [mM]” value (PO 25 mg/kg in 0.5% methocell, mice) is on record?
A: 317

Q: And the “Liver [mM]” value (PO 75 mg/kg in 0.5% methocell, mice)?
A: 747

Q: What about the “Liver [mM]” value (PO 150 mg/kg in 0.5% methocell, mice) of the same compound?
A: 677

Q: What about the Kp (male, C57BL/6N, mouse, liver, PO 25 mg/kg in 0.5% methocell, mice) of the same compound?
A: 15.9

Q: What about the Kp (male, C57BL/6N, mouse, liver, PO 75 mg/kg in 0.5% methocell, mice) of the same compound?
A: 14.4

Q: And the Kp (male, C57BL/6N, mouse, liver, PO 150 mg/kg in 0.5% methocell, mice)?
A: 13.8
